{"source": "patent US12649750B2", "about": "“Macrocyclic compounds, compositions, and methods of using thereof” (Sionna Therapeutics Inc., priority 2022, dated 2026)", "key": {"[1]": {"molecular_target": "T1, NBD1 (Homo sapiens, UniProt P13569)", "T1 construct": "Purified recombinant NBD1 was produced using previously described methods; made in house", "T1 sequence (P13569 423-646 limits assumed)": "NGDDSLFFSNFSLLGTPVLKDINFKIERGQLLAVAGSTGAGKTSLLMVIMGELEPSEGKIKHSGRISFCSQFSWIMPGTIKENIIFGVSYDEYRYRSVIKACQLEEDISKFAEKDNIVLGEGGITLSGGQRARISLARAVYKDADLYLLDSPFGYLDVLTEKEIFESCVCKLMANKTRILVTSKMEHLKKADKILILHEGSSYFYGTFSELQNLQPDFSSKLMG", "assay": "Aggregation analysis using differential static light scattering (DSLS), thermal stability of NBD1 (ΔTagg)", "format": "binding", "settings": "ΔTagg versus DMSO control, NBD1 0.2 mg/ml", "procedure,_shortened": "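Read-out is ΔTagg: the aggregation temperature, taken at the inflection of the light-scattering curve, less the average of DMSO control wells. Recombinant NBD1 (0.2 mg/ml, pH7.6 buffer containing 2 mM ATP) with test compound was heated at 1° C. per minute up to 70° C.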"}, "[2]": {"molecular_target": "T2, CFTR (Homo sapiens, UniProt P13569, DEL508-508)", "T2 construct": "Primary human bronchial epithelial cells from a ΔF508 homozygous CF donor; host or cells: primary human bronchial epithelial cells (CF-HBE), ΔF508 homozygous donor", "T2 sequence (P13569 with tags, fused parts or gaps DEL508-508)": "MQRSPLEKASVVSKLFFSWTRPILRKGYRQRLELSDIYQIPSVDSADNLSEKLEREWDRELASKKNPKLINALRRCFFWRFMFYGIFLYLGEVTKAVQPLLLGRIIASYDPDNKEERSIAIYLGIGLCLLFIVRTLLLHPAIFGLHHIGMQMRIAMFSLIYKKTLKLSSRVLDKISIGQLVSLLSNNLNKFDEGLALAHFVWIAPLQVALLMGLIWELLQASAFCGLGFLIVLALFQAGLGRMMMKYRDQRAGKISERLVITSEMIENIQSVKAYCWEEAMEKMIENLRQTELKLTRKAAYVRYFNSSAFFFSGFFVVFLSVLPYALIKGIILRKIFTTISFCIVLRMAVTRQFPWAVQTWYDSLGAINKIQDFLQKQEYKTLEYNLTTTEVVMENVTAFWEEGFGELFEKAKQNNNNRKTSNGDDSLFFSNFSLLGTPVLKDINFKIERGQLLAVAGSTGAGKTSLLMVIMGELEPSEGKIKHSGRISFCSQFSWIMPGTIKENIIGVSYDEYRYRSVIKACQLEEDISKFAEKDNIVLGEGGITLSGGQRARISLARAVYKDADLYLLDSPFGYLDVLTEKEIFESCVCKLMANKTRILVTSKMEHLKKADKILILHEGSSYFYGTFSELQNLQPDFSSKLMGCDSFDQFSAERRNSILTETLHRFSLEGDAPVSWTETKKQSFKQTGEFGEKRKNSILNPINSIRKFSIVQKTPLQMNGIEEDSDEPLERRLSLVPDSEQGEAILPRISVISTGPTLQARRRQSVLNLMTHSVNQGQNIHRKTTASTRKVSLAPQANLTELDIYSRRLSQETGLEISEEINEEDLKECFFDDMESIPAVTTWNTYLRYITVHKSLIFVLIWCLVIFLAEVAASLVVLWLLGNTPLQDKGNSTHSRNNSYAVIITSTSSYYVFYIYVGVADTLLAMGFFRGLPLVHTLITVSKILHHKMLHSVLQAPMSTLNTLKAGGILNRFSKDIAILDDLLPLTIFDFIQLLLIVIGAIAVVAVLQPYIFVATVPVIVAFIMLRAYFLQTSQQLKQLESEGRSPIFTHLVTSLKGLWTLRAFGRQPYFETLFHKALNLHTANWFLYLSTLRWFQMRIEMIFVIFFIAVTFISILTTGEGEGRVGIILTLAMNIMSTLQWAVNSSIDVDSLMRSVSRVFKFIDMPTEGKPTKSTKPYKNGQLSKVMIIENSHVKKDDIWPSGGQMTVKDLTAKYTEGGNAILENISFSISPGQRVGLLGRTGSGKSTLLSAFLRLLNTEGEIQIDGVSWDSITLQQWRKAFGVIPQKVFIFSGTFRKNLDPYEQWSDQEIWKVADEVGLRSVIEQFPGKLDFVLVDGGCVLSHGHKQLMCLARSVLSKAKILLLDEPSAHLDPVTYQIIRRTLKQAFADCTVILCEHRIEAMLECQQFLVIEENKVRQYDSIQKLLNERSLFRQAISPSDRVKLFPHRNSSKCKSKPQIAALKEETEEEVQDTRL", "assay": "TECC24 AUC fold over DMSO @10 μM, CFTR-mediated transepithelial chloride transport in CF-HBE cells", "format": "cell-based", "settings": "test agent AUC divided by DMSO vehicle AUC, primary CF-HBE cells, ΔF508 homozygous donor, 48 hours incubation", "procedure,_shortened": "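Primary ΔF508-homozygous CF bronchial epithelial cells on inserts were incubated 48 h at 36.5 °C with compound in IL-13-containing medium. VT and TEER were then recorded in current-clamp mode (pH 7.4 HEPES bath) with benzamil 10 μM, forskolin 10 μM, then CFTR inhibitor-172 20 μM. The IEQ AUC between forskolin and inhibitor was divided by vehicle AUC.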"}}}
{"smiles": "Cn1nc2nc1-c1cc(ccc1F)Oc1c(F)cc3[nH]ccc3c1CCS(=O)(=O)CC(C)(C)CCCC2(C)c1cccc(CC2NC(=O)NC2=O)c1", "note": "(stereo not shown) [Compound 175, 5-[[3-(22,28-Difluoro-3,6,10,10-tetramethyl-12,12-dioxo-24-oxa-12λ6-thia-3,4,19,30-tetrazapentacyclo[23.3.1.12,5.015,23.016,20]triaconta-1(29),2(30),4,15,17,20,22,25,27-nonaen-6-yl)phenyl]methyl]imidazolidine-2,4-dione]", "values": [{"measurement": "DSLS 3D (100 μM ΔT)", "setting": "[1]", "result": "C (a value greater than 10 °C and less than or equal to 25 °C is marked “C”)"}, {"measurement": "TECC (AUC, 10 μM)", "setting": "[2]", "result": "A (a TECC value less than 12 is marked “A”)"}]}
{"smiles": "Cn1nc2nc1-c1cc(ccc1F)Oc1c(F)cc3[nH]ccc3c1CCS(=O)(=O)CC(C)(C)CCCC2(C)c1cccc(C(O)C2NC(=O)NC2=O)c1", "note": "(stereo not shown) [Compound 176, 5-[[3-(22,28-Difluoro-3,6,10,10-tetramethyl-12,12-dioxo-24-oxa-12λ6-thia-3,4,19,30-tetrazapentacyclo[23.3.1.12,5.015,23.016,20]triaconta-1(29),2(30),4,15,17,20,22,25,27-nonaen-6-yl)phenyl]-hydroxy-methyl]imidazolidine-2,4-dione]", "values": [{"measurement": "DSLS 3D (100 μM ΔT)", "setting": "[1]", "result": "C (a value greater than 10 °C and less than or equal to 25 °C is marked “C”)"}, {"measurement": "TECC (AUC, 10 μM)", "setting": "[2]", "result": "B (a value between 12-20 is marked “B”)"}]}
{"smiles": "CCOC(=O)CC(O)c1cccc(C2(C)CCCC(C)(C)CS(=O)(=O)CCc3c(c(F)cc4[nH]ccc34)Oc3ccc(F)c(c3)-c3nc2nn3C)c1", "note": "(stereo not shown) [Compound 177, Ethyl 3-[3-(22,28-difluoro-3,6,10,10-tetramethyl-12,12-dioxo-24-oxa-12λ6-thia-3,4,19,30-tetrazapentacyclo[23.3.1.12,5.015,23.016,20]-triaconta-1(29),2(30),4,15,17,20,22,25,27-nonaen-6-yl)phenyl]-3-hydroxy-propanoate]", "values": [{"measurement": "DSLS 3D (100 μM ΔT)", "setting": "[1]", "result": "B (a value above 5 °C and less than or equal to 10 °C is marked “B”)"}, {"measurement": "TECC (AUC, 10 μM)", "setting": "[2]", "result": "C (a value between 20 and 80 is marked “C”)"}]}
{"smiles": "Cn1nc2nc1-c1cc(ccc1F)Oc1c(F)cc3[nH]ccc3c1CCS(=O)(=O)CC(C)(C)CCCC2(C)c1cccc(C(O)CC(=O)O)c1", "note": "(stereo not shown) [Compound 178, 3-[3-(22,28-Difluoro-3,6,10,10-tetramethyl-12,12-dioxo-24-oxa-12λ6-thia-3,4,19,30-tetrazapentacyclo[23.3.1.12,5.015,23.016,20]triaconta-1(29),2(30),4,15,17,20,22,25,27-nonaen-6-yl)phenyl]-3-hydroxy-propanoic Acid]", "values": [{"measurement": "DSLS 3D (100 μM ΔT)", "setting": "[1]", "result": "C (a value greater than 10 °C and less than or equal to 25 °C is marked “C”)"}, {"measurement": "TECC (AUC, 10 μM)", "setting": "[2]", "result": "C (a value between 20 and 80 is marked “C”)"}]}
{"smiles": "C[C@H](Cc1cccc([C@@]2(C)CCCC(C)(C)CS(=O)(=O)CCc3c(ccc4[nH]ccc34)Oc3ccc(F)c(c3)-c3nc2nn3C)c1)C(=O)O", "note": "[Compound 190, (2R)-3-[3-[(6R)-28-fluoro-3,6,10,10-tetramethyl-12,12-dioxo-24-oxa-12λ6-thia-3,4,19,30-tetrazapentacyclo[23.3.1.12,5.015,23.016,20]triaconta-1(29),2(30),4,15,17,20,22,25,27-nonaen-6-yl]phenyl]-2-methyl-propanoic Acid]", "values": [{"measurement": "DSLS 3D (100 μM ΔT)", "setting": "[1]", "result": "C (a value greater than 10 °C and less than or equal to 25 °C is marked “C”)"}, {"measurement": "TECC (AUC, 10 μM)", "setting": "[2]", "result": "B (a value between 12-20 is marked “B”)"}]}
{"smiles": "C[C@@H](Cc1cccc([C@@]2(C)CCCC(C)(C)CS(=O)(=O)CCc3c(c(F)cc4[nH]ccc34)Oc3ccc(F)c(c3)-c3csc2n3)c1)C(=O)O", "note": "[Compound 191, (2S)-3-[3-[(6R)-22,28-Difluoro-6,10,10-trimethyl-12,12-dioxo-24-oxa-4,12λ6-dithia-19,30-diazapentacyclo[23.3.1.12,5.015,23.016,20]triaconta-1(29),2,5(30),15,17,20,22,25,27-nonaen-6-yl]phenyl]-2-methyl-propanoic Acid]", "values": [{"measurement": "DSLS 3D (100 μM ΔT)", "setting": "[1]", "result": "C (a value greater than 10 °C and less than or equal to 25 °C is marked “C”)"}, {"measurement": "TECC (AUC, 10 μM)", "setting": "[2]", "result": "B (a value between 12-20 is marked “B”)"}]}
{"smiles": "C[C@@H](Cc1cccc([C@@]2(C)CCCC(C)(C)CS(=O)(=O)CCc3c(c(F)cc4[nH]ccc34)Oc3ccc(F)c(c3)-c3coc2n3)c1)C(=O)O", "note": "[Compound 192, (2S)-3-[3-[(6R)-22,28-difluoro-6,10,10-trimethyl-12,12-dioxo-4,24-dioxa-12λ6-thia-19,30-diazapentacyclo[23.3.1.12,5.015,23.016,20]triaconta-1(29),2,5(30),15,17,20,22,25,27-nonaen-6-yl]phenyl]-2-methyl-propanoic Acid]", "values": [{"measurement": "DSLS 3D (100 μM ΔT)", "setting": "[1]", "result": "C (a value greater than 10 °C and less than or equal to 25 °C is marked “C”)"}, {"measurement": "TECC (AUC, 10 μM)", "setting": "[2]", "result": "C (a value between 20 and 80 is marked “C”)"}]}
{"smiles": "COC(=O)[C@H](C)Cc1csc(C2(C)CCCC(C)(C)CS(=O)(=O)CCc3c(c(F)cc4[nH]ccc34)Oc3ccc(F)c(c3)-c3nc2nn3C)c1", "note": "(stereo partly drawn) [Compound 193, Methyl (2R)-3-[5-(22,28-difluoro-3,6,10,10-tetramethyl-12,12-dioxo-24-oxa-12λ6-thia-3,4,19,30-tetrazapentacyclo[23.3.1.12,5.015,23.016,20]triaconta-1(29),2(30),4,15,17,20,22,25,27-nonaen-6-yl)-3-thienyl]-2-methyl-propanoate]", "values": [{"measurement": "DSLS 3D (100 μM ΔT)", "setting": "[1]", "result": "B (a value above 5 °C and less than or equal to 10 °C is marked “B”)"}, {"measurement": "TECC (AUC, 10 μM)", "setting": "[2]", "result": "C (a value between 20 and 80 is marked “C”)"}]}
{"smiles": "C[C@H](Cc1cccc([C@@]2(C)CCCC(C)(C)CS(=O)(=O)CCc3c(c(F)cc4[nH]ccc34)Oc3ccc(F)c(c3)C3=NN=C2S3)c1)C(=O)O", "note": "[Compound 194, (2R)-3-[3-[(6R)-22,28-difluoro-6,10,10-trimethyl-12,12-dioxo-24-oxa-12λ6,30-dithia-3,4,19-triazapentacyclo[23.3.1.12,5.015,23.016,20]triaconta-1(29),2,4,15,17,20,22,25,27-nonaen-6-yl]phenyl]-2-methyl-propanoic Acid]", "values": [{"measurement": "DSLS 3D (100 μM ΔT)", "setting": "[1]", "result": "A (an ΔTagg value less than or equal to 5 °C is marked “A”)"}, {"measurement": "TECC (AUC, 10 μM)", "setting": "[2]", "result": "B (a value between 12-20 is marked “B”)"}]}
{"smiles": "C[C@H](Cc1cccc([C@@]2(C)CCCC(C)(C)CS(=O)(=O)CCc3c(c(F)cc4[nH]ccc34)Oc3ccnc(c3)-c3nc2nn3C)c1)C(=O)O", "note": "[Compound 197, (2R)-3-[3-[(6R)-22-Fluoro-3,6,10,10-tetramethyl-12,12-dioxo-24-oxa-12λ6-thia-3,4,19,28,30-pentazapentacyclo[23.3.1.12,5.015,23.016,20]triaconta-1(29),2(30),4,15,17,20,22,25,27-nonaen-6-yl]phenyl]-2-methyl-propanoic Acid]", "values": [{"measurement": "DSLS 3D (100 μM ΔT)", "setting": "[1]", "result": "C (a value greater than 10 °C and less than or equal to 25 °C is marked “C”)"}, {"measurement": "TECC (AUC, 10 μM)", "setting": "[2]", "result": "C (a value between 20 and 80 is marked “C”)"}]}
{"smiles": "C[C@H](Cc1ccc(C2(C)CCCC(C)(C)CS(=O)(=O)CCc3c(c(F)cc4[nH]ccc34)Oc3ccc(F)c(c3)-c3nc2nn3C)s1)C(=O)O", "note": "(stereo partly drawn) [Compound 198, (2R)-3-[5-(22,28-difluoro-3,6,10,10-tetramethyl-12,12-dioxo-24-oxa-12λ6-thia-3,4,19,30-tetrazapentacyclo[23.3.1.12,5.015,23.016,20]triaconta-1(29),2(30),4,15,17,20,22,25,27-nonaen-6-yl)-2-thienyl]-2-methyl-propanoic Acid]", "values": [{"measurement": "DSLS 3D (100 μM ΔT)", "setting": "[1]", "result": "C (a value greater than 10 °C and less than or equal to 25 °C is marked “C”)"}, {"measurement": "TECC (AUC, 10 μM)", "setting": "[2]", "result": "C (a value between 20 and 80 is marked “C”)"}]}
{"smiles": "Cn1nc2nc1-c1cc(ccc1F)Oc1c(F)cc3[nH]ccc3c1CCS(=O)(=O)CC(C)(C)CCCC2(C)c1cccc(CC2CCN(O)C2=O)c1", "note": "(stereo not shown) [Compound 199, 3-[[3-(22,28-Difluoro-3,6,10,10-tetramethyl-12,12-dioxo-24-oxa-12λ6-thia-3,4,19,30-tetrazapentacyclo[23.3.1.12,5.015,23.016,20]triaconta-1(29),2(30),4,15,17,20,22,25,27-nonaen-6-yl)phenyl]methyl]-1-hydroxy-pyrrolidin-2-one]", "values": [{"measurement": "DSLS 3D (100 μM ΔT)", "setting": "[1]", "result": "C (a value greater than 10 °C and less than or equal to 25 °C is marked “C”)"}, {"measurement": "TECC (AUC, 10 μM)", "setting": "[2]", "result": "C (a value between 20 and 80 is marked “C”)"}]}
{"smiles": "C[C@H](Cc1cccc([C@@]2(C)CCCC(C)(C)CS(=O)(=O)CCc3c(c(F)c(F)c4[nH]ccc34)Oc3ccc(F)c(c3)-c3nc2nn3C)c1)C(=O)O", "note": "[Compound 200, (2R)-2-methyl-3-[3-[(6R)-21,22,28-trifluoro-3,6,10,10-tetramethyl-12,12-dioxo-24-oxa-12λ6-thia-3,4,19,30-tetrazapentacyclo[23.3.1.12,5.015,23.016,20]triaconta-1(29),2(30),4,15,17,20,22,25,27-nonaen-6-yl]phenyl]propanoic acid]", "values": [{"measurement": "DSLS 3D (100 μM ΔT)", "setting": "[1]", "result": "C (a value greater than 10 °C and less than or equal to 25 °C is marked “C”)"}, {"measurement": "TECC (AUC, 10 μM)", "setting": "[2]", "result": "C (a value between 20 and 80 is marked “C”)"}]}
{"smiles": "C[C@H](Cc1cccc([C@@]2(C)CCCC(C)(C)CS(=O)(=O)CCc3c(c(F)cc4[nH]ccc34)Oc3cncc(c3)-c3nc2nn3C)c1)C(=O)O", "note": "[Compound 202, (2R)-3-[3-[(6R)-22-fluoro-3,6,10,10-tetramethyl-12,12-dioxo-24-oxa-12λ6-thia-3,4,19,27,30-pentazapentacyclo[23.3.1.12,5.015,23.016,20]triaconta-1(29),2(30),4,15,17,20,22,25,27-nonaen-6-yl]phenyl]-2-methyl-propanoic Acid]", "values": [{"measurement": "DSLS 3D (100 μM ΔT)", "setting": "[1]", "result": "C (a value greater than 10 °C and less than or equal to 25 °C is marked “C”)"}, {"measurement": "TECC (AUC, 10 μM)", "setting": "[2]", "result": "C (a value between 20 and 80 is marked “C”)"}]}
